In patent US12681009B2, “Molecular target in cancer” (The Regents of the University of California, priority 2021, dated 2026):

How the values were obtained:
[1] = molecular target: T1, Musashi RNA Binding Protein 2 (MSI2) (Homo sapiens, UniProt Q96DH6); assay: MSI2:NUMB-Biotin5′ RNA binding assay HTRF, 10-point duplicate dose response curves of 512 compounds (FIG. 14); details: 10-point duplicate curves, 100 μM to 5.6 nM, 3× dilution, MSI2 (His tag) 5 nM, NUMB-Biotin5′ RNA 1.25 nM, Streptavidin XL665 5 nM, His TB-Cryptate 0.6 nM, pH 7.3, read-out: MSI2 IC50 (normalized FRET ratio)
T1 construct: purchased LS Bio G2396
T1 sequence (Q96DH6 whole entry): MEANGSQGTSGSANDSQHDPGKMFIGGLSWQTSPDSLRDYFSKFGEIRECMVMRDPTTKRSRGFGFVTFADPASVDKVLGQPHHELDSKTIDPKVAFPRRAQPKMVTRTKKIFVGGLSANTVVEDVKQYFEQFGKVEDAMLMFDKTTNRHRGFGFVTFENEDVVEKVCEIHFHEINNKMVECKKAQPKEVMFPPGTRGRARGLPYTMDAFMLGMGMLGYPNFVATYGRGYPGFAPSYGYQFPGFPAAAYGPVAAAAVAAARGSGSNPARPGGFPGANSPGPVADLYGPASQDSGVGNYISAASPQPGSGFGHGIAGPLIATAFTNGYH
Excerpt: In some embodiments, a MSI2 binding assay was developed where streptavidin labeled with XL665 or d2 was used as the acceptor, and Terbium (Tb) cryptate was used as the donor. For example, in the MSI2 binding assay, NUMB RNA was biotinylated at the 5′ end to create NUMB-Biotin 5′ RNA, which was coupled to the XL665 or d2-labeled streptavidin acceptor through streptavidin-biotin interaction. The MSI2 protein was engineered to contain a His tag, which was coupled to the Tb cryptate donor through an anti-His antibody attached to the Tb cryptate. Due to the MSI2-NUMB RNA interaction, the XL665 or d2 acceptor was brought into proximity of the Tb cryptate donor, thus generating a detectable FRET signal. Parameters of the binding assay, including the concentrations of MSI2 and NUMB-Biotin 5′ RNA, were optimized. Thus, the interaction of the MSI2 protein to NUMB-Biotin 5′ RNA could create a detectable FRET signal that can be used for subsequent binding assays and screening for modulators of MSI2-RNA interactions.
Reagents and protein/peptide: MSI2-LS Bio G2396 (provided in 20 mM Tris-HCL pH 8.0, 150 mM NaCl, 10% glycerol, 1 mM DTT); U1A-LS Bio G19194-10 (provided in 16 mM HEPES, pH 7.6, 400 mM NaCl, 20% glycerol); NUMB 5′Biotin—(IDT); NUMB 5′—(IDT); U1A RNA 5′ Biotin—(IDT); U1A RNA 5′—(IDT); HEPES pH 7.3 (RNase/DNase free)—(Fisher—BP299); Molecular grade water (RNase/DNase free)—(Invitrogen-10977-95); DTT (molecular grade—RNase/DNase free)—(Promega-V3151); Pluronic F-127—(Sigma Aldrich SKU #P2443); NaCl (RNase/DNase free)—(Sigma—S3014); 6His Terbium (TB) Cryptate—(CisBio—61HI2TLA); Streptavidin XL665 (CisBio—610SAXLA); AlphaPlate-1536 well flat bottom plate, Light gray (Perkin Elmer #6004350); and AlphaScreen Histidine Detection Kit (Perkin Elmer, Cat. No. 6760619C) containing AlphaScreen Nickel Chelate Acceptor Beads (5 mg/ml), and AlphaScreen Streptavidin Donor Beads (5 mg/ml).
(§1) FIG. 6 illustrates the FRET assay principle for MSI2 and U1A. The NUMB RNA probe for MSI2 was selected based on prior scientific publications and has the following sequence: 5′[…]-Biotin (SEQ ID NO: 1) (Oncotarget, 8(63): 106587-106597 (2017). The RNA probe for U1A was designed based on an interaction study between U1A and RNA done by NMR (Structure 4(5): 621-631 (1996)) and has the following sequence: 5′[…]-Biotin (SEQ ID NO: 2). The underlined sequence represents the part which interacts with the protein, the sequence of AYYGCAC should fit into the groove of U1A according to the NMR studies. The remaining sequence without underline is a spacer. The assay developed provides robust TR-FRET readout.
IC50 analysis of 512 compounds selected from the confirmation screen (MSI2:NUMB-Biotin5′) screen was performed. The 512 compounds were run in duplicate 10-point dose response curve with a high concentration of 100 μM and a low concentration of 5.6 nM. The total volume of the assay was 8 μl and all steps except for ECHO dispense were performed on Tempest disperser. 80 nL of compounds in DMSO was dispensed in 10 point titrations of 3× dilutions with the t concentration of 100 μM and the bottom concentration of 5.6 nM from 10 mM stock using ECHO acoustic dispenser-duplicate curves on the same assay plate. 2 μL of assay buffer was added, 2 μL of MSI2 (4× Conc.) final concentration of 5 nM was added, and incubated for 30 minutes. […]

[2] = molecular target: T2, MSI2-RNA interaction (Homo sapiens, UniProt Q96DH6); assay: MSI2 TR-FRET assay, primary screen and triplicate confirmation; assay type: binding; details: identified by the method disclosed herein
T2 construct: purchased LS Bio G2396
T2 sequence (Q96DH6 whole entry): as above
Method: In some embodiments, inhibitory compounds of MSI2-RNA interactions were identified using the methods disclosed herein. In a primary screening of small molecule compound libraries using the MSI2 binding TR-FRET assay, 194,914 compounds were screened at 15 μM final concentration for induced inhibition of MSI2-RNA interaction. Hit compounds were selected with a cut-off of at least 30% inhibition. Subsequently, after analysis of donor- and acceptor-channels, and removal of potential detection artefacts, 1,391 compounds were selected and confirmed by MSI2 and U1A TR-FRET assays in triplicates and at 15 μM concentration (Table 1).
as §1
FIG. 7 illustrates the high throughput screening workflow. […] The hit cut-off criteria are >30% inhibition. The hit triaging is based on analysis of donor- and acceptor-channels, removal of potential detection artefacts. The hit confirmation is based on triplicate confirmation runs (15 μM) in MSI2 and U1A TR-FRET assays. The compound selection for dose-response is a dose-response testing in MSI2 and U1A to filter for compounds that have the drug potential. The hit selection for hit to lead (HTL) is based on QC on dose responsive hits SAR tractability, and model building for hit expansion.

[3] = molecular target: T3, MSI2 protein and NUMB-Biotin5′ RNA (Homo sapiens, UniProt Q96DH6); assay: MSI2:NUMB-CTRL RNA competition assay, HTRF (384 well plate); assay type: binding; details: competitor RNA titrated from 1000 nM, 2× dilution over 9 points; MSI2 5 nM + NUMB-Biotin5′ 1.25 nM
T3 construct: purchased LS Bio G2396
T3 sequence (Q96DH6 whole entry): as above
Method: (§2) MSI2: Numb/U1A:Target RNA Competition assay-HTRF (384 well plate): CisBio HTRF protocol was followed in a total assay volume of 20 μl. 5 μL of NUMB-CTRL RNA/Target-CTRL (4× Conc.) titrated in 10 point in 2× dilution, 5 μL of MSI2 protein/U1A protein (4× Conc.) final concentration of 5 nM was added to each well, 5 μL of NUMB-Biotin5′/Target-Biotin5′ RNA (4× Conc.) final concentration of 1.25 nM and Streptavidin XL665 acceptor (4×) final concentration of 5 nM were added, and incubated for 60 minutes at room temperature. 5 μL of 4×His TB cryptate, final concentration of 0.6 nM was added and incubated at room temperature for 60 minutes and read on envision. The assay buffer contained 150 mM NaCl, 25 mM HEPES pH 7.3, 1 mM DTT, and 0.05% pluronic F-127.
(§3) NUMB RNA or U1A target RNA was titrated starting from 1000 nM in 2× dilution over 9 points against MSI2 5 nM+NUMB-Biotin5′ 1.25 nM. […] NUMB RNA or U1A target RNA was titrated starting from 1000 nM in 2× dilution over 9 points against U1A 5 nM+U1A Target-Biotin5′ 1.25 nM. […] X axis: Log of CTRL RNA (M); Y axis: (Streptavidin XL665/6His TB cryptate ratio)*1000.
(§4) NUMB RNA or U1A target RNA was titrated starting from 1000 nM in 2× dilution over 9 points against MSI2 5 nM+NUMB-Biotin5′ 1.25 nM. […] NUMB RNA or U1A target RNA was titrated starting from 1000 nM in 2× dilution over 9 points against U1A 5 nM+U1A Target-Biotin5′ 1.25 nM. […]

[4] = molecular target: T4, U1A protein and U1A target-Biotin5′ RNA (Homo sapiens, UniProt P09012); assay: U1A:Target-CTRL RNA competition assay, HTRF (384 well plate); assay type: binding; details: competitor RNA titrated from 1000 nM, 2× dilution over 9 points; U1A 5 nM + U1A Target-Biotin5′ 1.25 nM
T4 construct: purchased LS Bio G19194-10
T4 sequence (P09012 whole entry, species assumed): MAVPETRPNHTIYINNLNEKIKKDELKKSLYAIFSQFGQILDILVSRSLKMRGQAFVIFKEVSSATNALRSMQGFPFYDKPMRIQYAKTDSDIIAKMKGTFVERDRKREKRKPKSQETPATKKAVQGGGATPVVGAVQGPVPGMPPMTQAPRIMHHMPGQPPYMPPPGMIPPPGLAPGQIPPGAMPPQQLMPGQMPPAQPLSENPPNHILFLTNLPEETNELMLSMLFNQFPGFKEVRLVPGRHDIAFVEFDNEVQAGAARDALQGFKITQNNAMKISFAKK
Method: as §2, §3, §4

Row | Compound | IC50 [1] [nM] | inhibitor of MSI2-RNA interaction identified by the method [2] | further results
1 | Cc1cc(C)n2c(SCC(=O)c3cccc(N4CCCC4=O)c3)nnc2n1 [WXHTS0080223, 1-{3-[2-({5,7-dimethyl-[1,2,4]triazolo[4,3-a]pyrimidin-3-yl}sulfanyl)acetyl]phenyl}pyrrolidin-2-one] | 850 |  | 
2 | CC(=O)N1CCC(NC(=O)c2cc(C)c(C)s2)CC1 [N-(1-acetylpiperidin-4-yl)-4,5-dimethylthiophene-2-carboxamide] |  | inhibitors of MSI2-RNA interaction | 
3 | NUMB RNA: non-biotinylated NUMB RNA that competes with NUMB-Biotin 5′ RNA to bind the MSI2 protein (UAGGUAGUAGUUUUA; non-biotinylated RNA, further chemistry not given here) |  |  | displacement of the binding signal between MSI2 protein and NUMB-Biotin5′ RNA [3]: displaced the binding signal; displacement of the binding signal between U1A protein and U1A target-Biotin5′ RNA [4]: did not displace the binding signal
4 | Cc1ccc(C)n1-c1sccc1C(=O)N1CC(C(N)=O)Oc2ccccc21 (stereo not drawn) [WXHTS0047719, 4-[2-(2,5-dimethyl-1H-pyrrol-1-yl)thiophene-3-carbonyl]-3,4-dihydro-2H-1,4-benzoxazine-2-carboxamide] | 710 |  | 
5 | Cc1cc(C)n2c(SCC(=O)c3cccc(N4CCCC4=O)c3)nnc2n1 [1-{3-[2-({5,7-dimethyl-[1,2,4]triazolo[4,3-a]pyrimidin-3-yl}sulfanyl)acetyl]phenyl}pyrrolidin-2-one] |  | inhibitors of MSI2-RNA interaction | 
6 | CC(=O)N1CCC(NC(=O)c2cc(C)c(C)s2)CC1 [WXHTS0092123, N-(1-acetylpiperidin-4-yl)-4,5-dimethylthiophene-2-carboxamide] | 920 |  | 
7 | Cc1ccc(C)n1-c1ccc(SCC(=O)O)cc1 [WXHTS0063086, 2-{[4-(2,5-dimethyl-1H-pyrrol-1-yl)phenyl]sulfanyl}acetic acid] | 470 |  | 
8 | Cc1ccc(C)n1-c1sccc1C(=O)N1CC(C(N)=O)Oc2ccccc21 (stereo not drawn) [4-[2-(2,5-dimethyl-1H-pyrrol-1-yl)thiophene-3-carbonyl]-3,4-dihydro-2H-1,4-benzoxazine-2-carboxamide] |  | inhibitors of MSI2-RNA interaction | 
9 | O=c1cc(CN2CCn3c(nnc3-c3ccccc3)C2)[nH]c2ccnn12 [WXHTS0101810, 5-({3-phenyl-5H,6H, 7H,8H-[1,2,4]triazolo[4,3-a]pyrazin-7-yl}methyl)-4H,7H-pyrazolo[1,5-a]pyrimidin-7-one] | 850 |  | 
10 | Cc1ccc(C)n1-c1ccc(SCC(=O)O)cc1 [2-{[4-(2,5-dimethyl-1H-pyrrol-1-yl)phenyl]sulfanyl}acetic acid] |  | inhibitors of MSI2-RNA interaction | 
11 | O=c1cc(CN2CCn3c(nnc3-c3ccccc3)C2)[nH]c2ccnn12 [5-({3-phenyl-5H,6H, 7H,8H-[1,2,4]triazolo[4,3-a]pyrazin-7-yl}methyl)-4H,7H-pyrazolo[1,5-a]pyrimidin-7-one] |  | inhibitors of MSI2-RNA interaction | 
